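How tested: cells in 96-well plates exposed to compound for 48 hours at five concentrations. The concentration for 50% growth inhibition is given as GI50.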 Activity calls are given as the source filed them. No stated cut-off is given here; in the data, active = GI50 up to about 1.1 µM and inactive = higher.
How the values were obtained:
Experiment in all cases: NCI-60 cell line screen, 48 h
[1] = tested on: 786-0
[2] = tested on: A498
[3] = tested on: A549
[4] = tested on: ACHN
[5] = tested on: BT-549
[6] = tested on: CAKI-1
[7] = tested on: CCRF-CEM
[8] = tested on: COLO 205
[9] = tested on: DU-145
[10] = tested on: EKVX
[11] = tested on: HCC 2998
[12] = tested on: HCT-116
[13] = tested on: HCT-15
[14] = tested on: HL-60
[15] = tested on: HOP-62
[16] = tested on: HOP-92
[17] = tested on: HT-29
[18] = tested on: Hs-578T
[19] = tested on: IGROV-1
[20] = tested on: K562
[21] = tested on: KM12
[22] = tested on: LOX IMVI
[23] = tested on: M14
[24] = tested on: MCF7
[25] = tested on: MDA-MB-231
[26] = tested on: MDA-MB-435
[27] = tested on: MDA-N
[28] = tested on: MOLT-4
[29] = tested on: Malme-3M
[30] = tested on: NCI-H226
[31] = tested on: NCI-H23
[32] = tested on: NCI-H460
[33] = tested on: NCI-H522
[34] = tested on: NCI/ADR-RES
[35] = tested on: OVCAR-3
[36] = tested on: OVCAR-5
[37] = tested on: OVCAR-8
[38] = tested on: PC-3
[39] = tested on: RPMI-8226
[40] = tested on: RXF 393
[41] = tested on: SF-268
[42] = tested on: SF-295
[43] = tested on: SF-539
[44] = tested on: SK-MEL-28
[45] = tested on: SK-MEL-5
[46] = tested on: SK-OV-3
[47] = tested on: SNB-19
[48] = tested on: SNB-75
[49] = tested on: SR
[50] = tested on: SW-620
[51] = tested on: TK-10
[52] = tested on: U-251
[53] = tested on: UACC-257
[54] = tested on: UACC-62
[55] = tested on: UO-31
[56] = tested on: SK-MEL-2
[57] = tested on: SN12C
[58] = tested on: T47D

Compound: C=CCn1c(-c2ccc([N+](=O)[O-])cc2)cs/c1=N\C(P(=O)(O)O)P(=O)(O)O
- GI50 [1]: > 100 µM (inactive)
- GI50 [2]: > 100 µM (inactive)
- GI50 [3]: > 100 µM (inactive)
- GI50 [4]: > 100 µM (inactive)
- GI50 [5]: > 100 µM (inactive)
- GI50 [6]: > 100 µM (inactive)
- GI50 [7]: > 100 µM (inactive)
- GI50 [8]: > 100 µM (inactive)
- GI50 [9]: > 100 µM (inactive)
- GI50 [10]: > 100 µM (inactive)
- GI50 [11]: > 100 µM (inactive)
- GI50 [12]: > 100 µM (inactive)
- GI50 [13]: > 100 µM
- GI50 [14]: 0.0383 µM (active)
- GI50 [15]: > 100 µM (inactive)
- GI50 [16]: > 100 µM (inactive)
- GI50 [17]: > 100 µM (inactive)
- GI50 [18]: > 100 µM (inactive)
- GI50 [19]: > 100 µM (inactive)
- GI50 [20]: > 100 µM (inactive)
- GI50 [21]: > 100 µM (inactive)
- GI50 [22]: > 100 µM (inactive)
- GI50 [23]: > 100 µM (inactive)
- GI50 [24]: > 100 µM (inactive)
- GI50 [25]: > 100 µM (inactive)
- GI50 [26]: > 100 µM (inactive)
- GI50 [27]: > 100 µM (inactive)
- GI50 [28]: > 100 µM (inactive)
- GI50 [29]: > 100 µM (inactive)
- GI50 [30]: > 100 µM (inactive)
- GI50 [31]: > 100 µM (inactive)
- GI50 [32]: > 100 µM (inactive)
- GI50 [33]: > 100 µM (inactive)
- GI50 [34]: > 100 µM (inactive)
- GI50 [35]: > 100 µM (inactive)
- GI50 [36]: > 100 µM (inactive)
- GI50 [37]: > 100 µM (inactive)
- GI50 [38]: > 100 µM (inactive)
- GI50 [39]: > 100 µM (inactive)
- GI50 [40]: > 100 µM (inactive)
- GI50 [41]: > 100 µM (inactive)
- GI50 [42]: > 100 µM (inactive)
- GI50 [43]: > 100 µM (inactive)
- GI50 [44]: > 100 µM (inactive)
- GI50 [45]: > 100 µM (inactive)
- GI50 [46]: > 100 µM (inactive)
- GI50 [47]: > 100 µM (inactive)
- GI50 [48]: > 100 µM (inactive)
- GI50 [49]: > 100 µM (inactive)
- GI50 [50]: > 100 µM (inactive)
- GI50 [51]: > 100 µM (inactive)
- GI50 [52]: > 100 µM (inactive)
- GI50 [53]: > 100 µM (inactive)
- GI50 [54]: > 100 µM (inactive)
- GI50 [55]: > 100 µM (inactive)

Compound: O=c1[nH][nH]c(=O)n1Cc1ccccc1Cn1c(=O)[nH][nH]c1=O
- GI50 [1]: > 100 µM (inactive)
- GI50 [2]: > 100 µM (inactive)
- GI50 [3]: > 100 µM (inactive)
- GI50 [4]: > 100 µM (inactive)
- GI50 [5]: > 100 µM (inactive)
- GI50 [6]: > 100 µM (inactive)
- GI50 [7]: > 100 µM (inactive)
- GI50 [8]: > 100 µM (inactive)
- GI50 [9]: > 100 µM (inactive)
- GI50 [10]: > 100 µM (inactive)
- GI50 [12]: > 100 µM (inactive)
- GI50 [13]: > 100 µM
- GI50 [14]: > 100 µM (inactive)
- GI50 [15]: > 100 µM (inactive)
- GI50 [16]: > 100 µM (inactive)
- GI50 [17]: > 100 µM (inactive)
- GI50 [18]: > 100 µM (inactive)
- GI50 [19]: > 100 µM (inactive)
- GI50 [20]: > 100 µM (inactive)
- GI50 [21]: > 100 µM (inactive)
- GI50 [22]: > 100 µM (inactive)
- GI50 [23]: > 100 µM (inactive)
- GI50 [25]: > 100 µM (inactive)
- GI50 [26]: > 100 µM (inactive)
- GI50 [27]: > 100 µM (inactive)
- GI50 [28]: > 100 µM (inactive)
- GI50 [29]: > 100 µM (inactive)
- GI50 [30]: > 100 µM (inactive)
- GI50 [31]: > 100 µM (inactive)
- GI50 [32]: > 100 µM (inactive)
- GI50 [33]: > 100 µM (inactive)
- GI50 [34]: > 100 µM (inactive)
- GI50 [35]: > 100 µM (inactive)
- GI50 [36]: > 100 µM (inactive)
- GI50 [37]: > 100 µM (inactive)
- GI50 [38]: > 100 µM (inactive)
- GI50 [39]: > 100 µM (inactive)
- GI50 [40]: > 100 µM (inactive)
- GI50 [41]: > 100 µM (inactive)
- GI50 [42]: > 100 µM (inactive)
- GI50 [43]: > 100 µM (inactive)
- GI50 [44]: > 100 µM (inactive)
- GI50 [56]: > 100 µM (inactive)
- GI50 [45]: > 100 µM (inactive)
- GI50 [46]: > 100 µM (inactive)
- GI50 [57]: > 100 µM (inactive)
- GI50 [47]: > 100 µM (inactive)
- GI50 [48]: > 100 µM (inactive)
- GI50 [50]: > 100 µM (inactive)
- GI50 [58]: > 100 µM (inactive)
- GI50 [51]: > 100 µM (inactive)
- GI50 [52]: > 100 µM (inactive)
- GI50 [53]: > 100 µM (inactive)
- GI50 [54]: > 100 µM (inactive)
- GI50 [55]: > 100 µM (inactive)
